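48-hour exposure; five concentrations; linearly interpolated endpoints. GI50 is the concentration that inhibits growth by half.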 Active and inactive are the calls of the source. No stated cut-off is given here; in the data, active = GI50 up to about 1.1 µM and inactive = higher.
How the values were obtained:
Assay in all cases: NCI tumour cell line growth inhibition, 48 h
NCI-H23 = tested on: NCI-H23
NCI-H460 = tested on: NCI-H460
MDA-MB-231 = tested on: MDA-MB-231
SR = tested on: SR
MOLT-4 = tested on: MOLT-4
TK-10 = tested on: TK-10
M14 = tested on: M14
SK-MEL-2 = tested on: SK-MEL-2
IGROV-1 = tested on: IGROV-1
CAKI-1 = tested on: CAKI-1
LOX IMVI = tested on: LOX IMVI
K562 = tested on: K562
OVCAR-4 = tested on: OVCAR-4
OVCAR-8 = tested on: OVCAR-8
DU-145 = tested on: DU-145
UACC-62 = tested on: UACC-62
MDA-MB-435 = tested on: MDA-MB-435
HCT-116 = tested on: HCT-116
SF-539 = tested on: SF-539
MCF7 = tested on: MCF7

Measured: GI50

Cn1c(=O)c2nc(CCNC(=O)c3ccccc3)[nH]c2n(C)c1=O
inactive: NCI-H23 > 100 µM | NCI-H460 > 100 µM | MDA-MB-231 > 100 µM | SR > 100 µM | MOLT-4 > 100 µM | TK-10 > 100 µM | M14 > 100 µM | SK-MEL-2 > 100 µM | IGROV-1 > 100 µM | CAKI-1 > 100 µM | LOX IMVI > 100 µM | K562 > 100 µM | OVCAR-4 > 100 µM | OVCAR-8 > 100 µM | DU-145 > 100 µM | UACC-62 > 100 µM | MDA-MB-435 > 100 µM | HCT-116 > 100 µM

O=C(CSCC(=O)N/N=C/c1cc(I)cc(I)c1O)N/N=C/c1cc(I)cc(I)c1O
inactive: NCI-H23 11.6 µM | NCI-H460 25.6 µM | MDA-MB-231 7.18 µM | SR 3.54 µM | MOLT-4 5.19 µM | SF-539 7.57 µM | TK-10 7.4 µM | M14 17.8 µM | SK-MEL-2 23.7 µM | IGROV-1 8.28 µM | CAKI-1 18.3 µM | MCF7 15.1 µM | K562 11.1 µM | OVCAR-4 47 µM | OVCAR-8 6.34 µM | DU-145 17.7 µM | UACC-62 12.8 µM | MDA-MB-435 25.4 µM | HCT-116 9.29 µM

O=C1SC(c2ccc(Cl)cc2)(c2ccc(Cl)cc2)c2ccccc21
inactive: NCI-H23 59.4 µM | NCI-H460 63.1 µM | MDA-MB-231 > 100 µM | MOLT-4 32.7 µM | SF-539 > 100 µM | TK-10 > 100 µM | M14 87.9 µM | SK-MEL-2 22.6 µM | IGROV-1 > 100 µM | CAKI-1 > 100 µM | MCF7 48.8 µM | LOX IMVI 80.7 µM | K562 44.5 µM | OVCAR-4 33.5 µM | OVCAR-8 > 100 µM | DU-145 89.1 µM | UACC-62 98.4 µM | MDA-MB-435 61.5 µM | HCT-116 13.3 µM

NC(=O)C[S+]([O-])CC(N)C(=O)O (centres undefined)
inactive: NCI-H23 > 100 µM | NCI-H460 > 100 µM | MDA-MB-231 > 100 µM | SR > 100 µM | MOLT-4 > 100 µM | TK-10 > 100 µM | M14 > 100 µM | SK-MEL-2 > 100 µM | IGROV-1 > 100 µM | CAKI-1 > 100 µM | LOX IMVI > 100 µM | K562 > 100 µM | OVCAR-4 > 100 µM | OVCAR-8 > 100 µM | DU-145 > 100 µM | UACC-62 > 100 µM | MDA-MB-435 > 100 µM | HCT-116 > 100 µM

O=C(N/N=C(COc1ccccc1Cl)\N=C\c1ccncc1)c1ccncc1
inactive: NCI-H23 > 100 µM | NCI-H460 > 100 µM | MDA-MB-231 > 100 µM | MOLT-4 61.1 µM | SF-539 > 100 µM | TK-10 > 100 µM | M14 > 100 µM | SK-MEL-2 > 100 µM | IGROV-1 > 100 µM | CAKI-1 > 100 µM | MCF7 > 100 µM | LOX IMVI > 100 µM | K562 > 100 µM | OVCAR-4 > 100 µM | OVCAR-8 > 100 µM | DU-145 > 100 µM | UACC-62 > 100 µM | MDA-MB-435 > 100 µM | HCT-116 > 100 µM

C=CCc1cccc2cc(C(N)=O)c(=N)oc12
inactive: NCI-H23 > 100 µM | NCI-H460 > 100 µM | MDA-MB-231 > 100 µM | SR 40.6 µM | MOLT-4 > 100 µM | M14 > 100 µM | SK-MEL-2 99.5 µM | IGROV-1 23.8 µM | CAKI-1 > 100 µM | LOX IMVI 84.7 µM | OVCAR-4 > 100 µM | OVCAR-8 > 100 µM | DU-145 > 100 µM | UACC-62 71.8 µM | MDA-MB-435 95.7 µM | HCT-116 78.2 µM

CC(C)CC(NC(=O)OCc1ccccc1)C(=O)NCCCCC(N)C(=O)NC(CCCCNC(=O)C(CC(C)C)NC(=O)OCc1ccccc1)C(=O)NC(CCCCNC(=O)C(CC(C)C)NC(=O)OCc1ccccc1)C(=O)NC(CCCCNC(=O)C(CC(C)C)NC(=O)OCc1ccccc1)C(=O)NC(CCCCNC(=O)C(CC(C)C)NC(=O)OCc1ccccc1)C(=O)NC(CCCCNC(=O)C(CC(C)C)NC(=O)OCc1ccccc1)C(=O)O (centres undefined)
inactive: NCI-H23 > 100 µM | NCI-H460 > 100 µM | MDA-MB-231 > 100 µM | SR > 100 µM | MOLT-4 > 100 µM | TK-10 > 100 µM | SK-MEL-2 > 100 µM | IGROV-1 > 100 µM | MCF7 > 100 µM | LOX IMVI 88.5 µM | K562 > 100 µM | OVCAR-4 > 100 µM | OVCAR-8 > 100 µM | DU-145 > 100 µM | UACC-62 > 100 µM | MDA-MB-435 > 100 µM | HCT-116 > 100 µM

CCN1CCC(CNC(=O)c2ccc(N)cc2)N1CC (centres undefined)
inactive: NCI-H23 > 100 µM | NCI-H460 > 100 µM | MDA-MB-231 > 100 µM | SR > 100 µM | MOLT-4 > 100 µM | SF-539 > 100 µM | TK-10 > 100 µM | M14 > 100 µM | SK-MEL-2 > 100 µM | IGROV-1 > 100 µM | CAKI-1 > 100 µM | MCF7 > 100 µM | K562 > 100 µM | OVCAR-4 > 100 µM | OVCAR-8 > 100 µM | DU-145 > 100 µM | UACC-62 > 100 µM | MDA-MB-435 > 100 µM | HCT-116 > 100 µM

Cc1ccccc1NC(=O)C(=O)CC(=O)c1sc(Nc2ccccc2[N+](=O)[O-])nc1C
inactive: NCI-H23 36.8 µM | NCI-H460 27.4 µM | MDA-MB-231 17.3 µM | MOLT-4 51.1 µM | SF-539 29.9 µM | TK-10 25.7 µM | M14 39.7 µM | SK-MEL-2 56.6 µM | IGROV-1 41.4 µM | CAKI-1 28.4 µM | MCF7 23.9 µM | LOX IMVI 37.4 µM | K562 49.2 µM | OVCAR-4 18.2 µM | OVCAR-8 43.4 µM | DU-145 50 µM | UACC-62 18.2 µM | MDA-MB-435 29 µM | HCT-116 29.7 µM

O=CNNC(=O)Nc1ccc(Cl)cc1
inactive: NCI-H23 > 100 µM | MDA-MB-231 > 100 µM | SR > 100 µM | MOLT-4 > 100 µM | SF-539 > 100 µM | TK-10 > 100 µM | M14 > 100 µM | IGROV-1 > 100 µM | MCF7 > 100 µM | K562 > 100 µM | OVCAR-4 > 100 µM | OVCAR-8 > 100 µM | DU-145 > 100 µM | UACC-62 > 100 µM | MDA-MB-435 > 100 µM | HCT-116 > 100 µM

Oc1ccc(/C=N/CC2CCCN3CCCCC23)cc1 (centres undefined)
inactive: NCI-H23 24.9 µM | NCI-H460 25.1 µM | MDA-MB-231 28.8 µM | MOLT-4 27.4 µM | SF-539 62.1 µM | TK-10 23.4 µM | M14 26.5 µM | SK-MEL-2 19.5 µM | IGROV-1 24.2 µM | CAKI-1 17.8 µM | MCF7 18.3 µM | LOX IMVI 21.4 µM | K562 43.3 µM | OVCAR-4 17.8 µM | OVCAR-8 44 µM | DU-145 16 µM | UACC-62 24.5 µM | MDA-MB-435 14.1 µM | HCT-116 16.7 µM

CC(N)C(C)Cc1ccccc1 (centres undefined)
inactive: NCI-H23 > 100 µM | NCI-H460 > 100 µM | MDA-MB-231 > 100 µM | MOLT-4 > 100 µM | TK-10 > 100 µM | M14 > 100 µM | IGROV-1 > 100 µM | CAKI-1 > 100 µM | MCF7 > 100 µM | LOX IMVI > 100 µM | K562 > 100 µM | OVCAR-4 > 100 µM | OVCAR-8 > 100 µM | DU-145 > 100 µM | UACC-62 > 100 µM | MDA-MB-435 > 100 µM | HCT-116 > 100 µM

COc1ccc(/C=C2\CCC(C)/C(=C\c3ccc(OC)c(OC)c3)C2=O)cc1OC (centres undefined)
inactive: NCI-H23 3.94 µM | MDA-MB-231 7.8 µM | MOLT-4 3.23 µM | SF-539 3.42 µM | TK-10 2.61 µM | M14 5.38 µM | SK-MEL-2 3.82 µM | IGROV-1 2.88 µM | CAKI-1 5.82 µM | MCF7 4.85 µM | LOX IMVI 4.33 µM | K562 3.36 µM | OVCAR-8 3.76 µM | DU-145 3.73 µM | UACC-62 6.21 µM | MDA-MB-435 3.76 µM | HCT-116 3.78 µM

Cc1cc(S(=O)(=O)Nc2nc3cscc3c(=O)n2N)c(S)cc1Cl
inactive: NCI-H23 55.2 µM | NCI-H460 28 µM | MDA-MB-231 73.8 µM | MOLT-4 57.3 µM | SF-539 34.7 µM | TK-10 > 100 µM | M14 31.9 µM | SK-MEL-2 33.4 µM | IGROV-1 50.7 µM | CAKI-1 > 100 µM | MCF7 61.5 µM | LOX IMVI 36.5 µM | K562 60.5 µM | OVCAR-4 39.3 µM | OVCAR-8 46.2 µM | DU-145 40.3 µM | UACC-62 31.9 µM | MDA-MB-435 56 µM | HCT-116 36.7 µM

CN(C)c1cccc2c(S(=O)(=O)NCCN)cccc12 [DANSYL ETHYLENEDIAMINE]
inactive: NCI-H23 > 100 µM | NCI-H460 > 100 µM | MDA-MB-231 > 100 µM | SR > 100 µM | MOLT-4 > 100 µM | SF-539 > 100 µM | M14 > 100 µM | SK-MEL-2 > 100 µM | IGROV-1 33.7 µM | CAKI-1 > 100 µM | LOX IMVI > 100 µM | K562 > 100 µM | OVCAR-4 > 100 µM | DU-145 > 100 µM | UACC-62 > 100 µM | MDA-MB-435 > 100 µM | HCT-116 35.2 µM
